Columns and labels:
[1] = tested on: CFTR mRNA; assay: CFTR mRNA quantification in CFBE cells; assay type: cell-based, human; settings: 24 hours, 2000 nM
Procedure: CFBE-F508del-CFTR cells were seeded at 70,000 cells per well in a FNC-coated 48-well plate and incubated for 24 hours with 2000 nM of indicated correctors or DMSO vehicle diluted in growth medium deprived of FBS but supplemented with 1% HSA. CFBE-WT-CFTR cells were treated with DMSO vehicle accordingly. Then, cells were washed twice with PBS^+ and lysed in RLT buffer (QIAGEN) for 10 min on ice. Lysates were fully homogenized with QIAshredder (#79656, QIAGEN), and total RNA was extracted with an RNeasy Mini kit (#74106, QIAGEN) following the manufacturer’s instruction. At the end, a deoxyribonuclease treatment was performed with a DNA-free kit (Invitrogen, AM1906) following the manufacturer’s instruction. A reverse transcription (150 ng of total RNA per sample) with random hexamers was performed with the high-capacity cDNA Reverse Transcription Kit (#4368814, Thermo Fisher Scientific) for 2 hours at 37°C. Three microliters of cDNA was mixed with 10 μl of TaqMan Fast Universal PCR (polymerase chain reaction) Master Mix (2×) No AmpErase UNG (4367848, Life Technologies) containing the probe of interest (1:20), and a quantitative PCR was run [20″ at 95°C; 3″ at 95°C to 30″ at 60°C (40 cycles)] on a 7500 Applied Biosystems device. […] Reference gene-normalized CFTR mRNA expression was calculated using ΔΔCt method with CFTR expression in vehicle-treated CFBE-F508del cells set to 1.

[2] = biological target: F508del-CFTR (Homo sapiens, UniProt P13569, DEL508-508); assay: SILAC heavy pulse light-chase assay: ER CFTR folding efficiency in CFBE41o- cells; assay type: cell-based; settings: 2.5-hour chase; 2 μM IDOR-3, 2 μM IDOR-4, 10 μM TEZ, 10 μM ELX, TEZ + ELX 10 μM each
Procedure: Stable isotope labeling using amino acids in cell culture (SILAC technology, Thermo Fisher Scientific) was used. For pulse-chase assays to determine CFTR folding efficiency at the ER, CFBE-F508del-CFTR or CFBE-WT-CFTR were seeded at 100,000 cells per well into a FNC-coated 24-well plate in CFBE growth medium and, the next day, incubated for 24 hours with “SILAC light medium” [arginine- and lysine-free RPMI 1640 #A33823, 84 mg/liter light L-arginine, # 89989, 146 mg/liter light L-lysine, #88429 and 20 mg/liter L-proline, # 89989 (to prevent a potential arginine-proline conversion)] supplemented with 10% dialyzed FBS. Cells were then washed once in PBS (37°C) and incubated for 1 hour with “starvation medium” (arginine-, lysine-free RPMI 1640, and 1% HSA) containing the indicated fixed concentrations of correctors. A 30-min metabolic pulse labeling was then performed by replacing the medium with “SILAC heavy medium” [arginine- and lysine-free RPMI 1640, L-proline (20 mg/liter), heavy L-arginine (84 mg/liter; ^13C6^15N4, #89990), heavy L-lysine (146 mg/liter; ^13C6^15N2, #88209), and 1% HSA] containing correctors. Cells were then washed with PBS and chased in SILAC light medium supplemented with 1% HSA and correctors. This medium was kept for 1, 2.5, 4, and 6 h of chase time followed by cell lysis in RIPA buffer as described above. […]

F508del-CFTR, sequence (P13569 with tags, fused parts or gaps DEL508-508): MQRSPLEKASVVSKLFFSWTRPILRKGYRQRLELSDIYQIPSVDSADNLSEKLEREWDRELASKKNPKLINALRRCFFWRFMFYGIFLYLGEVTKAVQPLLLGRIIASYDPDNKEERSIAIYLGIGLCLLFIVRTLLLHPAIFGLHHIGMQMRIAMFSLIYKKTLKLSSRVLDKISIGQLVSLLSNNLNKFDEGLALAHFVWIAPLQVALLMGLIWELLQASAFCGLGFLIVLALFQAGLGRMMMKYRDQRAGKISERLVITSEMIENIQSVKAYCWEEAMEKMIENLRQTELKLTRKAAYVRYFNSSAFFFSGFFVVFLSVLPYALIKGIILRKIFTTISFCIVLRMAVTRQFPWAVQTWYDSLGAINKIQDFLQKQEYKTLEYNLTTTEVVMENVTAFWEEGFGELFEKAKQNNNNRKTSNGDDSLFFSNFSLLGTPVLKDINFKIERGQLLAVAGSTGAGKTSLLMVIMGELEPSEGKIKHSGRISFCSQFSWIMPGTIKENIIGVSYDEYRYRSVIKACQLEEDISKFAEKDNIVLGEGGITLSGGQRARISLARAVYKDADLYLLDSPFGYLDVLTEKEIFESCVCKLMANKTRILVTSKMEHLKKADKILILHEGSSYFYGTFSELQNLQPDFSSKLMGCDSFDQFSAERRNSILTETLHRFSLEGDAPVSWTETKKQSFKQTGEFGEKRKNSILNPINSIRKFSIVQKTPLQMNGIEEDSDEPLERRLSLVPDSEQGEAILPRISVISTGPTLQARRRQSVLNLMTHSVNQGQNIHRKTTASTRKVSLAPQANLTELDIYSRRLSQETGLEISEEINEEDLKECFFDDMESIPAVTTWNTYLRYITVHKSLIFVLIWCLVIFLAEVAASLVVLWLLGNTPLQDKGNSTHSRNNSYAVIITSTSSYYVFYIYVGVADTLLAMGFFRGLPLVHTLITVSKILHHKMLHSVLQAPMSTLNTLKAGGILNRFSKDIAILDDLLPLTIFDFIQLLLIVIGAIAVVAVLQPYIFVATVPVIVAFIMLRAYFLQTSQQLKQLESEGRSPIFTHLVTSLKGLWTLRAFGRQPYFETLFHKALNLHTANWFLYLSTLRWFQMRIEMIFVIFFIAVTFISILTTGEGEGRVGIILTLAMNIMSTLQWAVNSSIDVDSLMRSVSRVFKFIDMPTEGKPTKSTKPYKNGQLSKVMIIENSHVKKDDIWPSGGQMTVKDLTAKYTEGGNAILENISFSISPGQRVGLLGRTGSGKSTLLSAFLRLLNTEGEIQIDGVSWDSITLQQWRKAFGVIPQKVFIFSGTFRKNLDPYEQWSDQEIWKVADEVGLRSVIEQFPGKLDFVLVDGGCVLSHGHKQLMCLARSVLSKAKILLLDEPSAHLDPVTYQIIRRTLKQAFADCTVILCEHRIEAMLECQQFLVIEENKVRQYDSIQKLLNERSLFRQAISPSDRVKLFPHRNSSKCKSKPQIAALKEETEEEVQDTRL

B-to-C conversion rate (folding efficiency) [2] [%]	Compound	effect on CFTR mRNA levels [1]
6.7	Cc1nn(C)cc1S(=O)(=O)NC(=O)c1ccc(-n2ccc(OCC(C)(C)C(F)(F)F)n2)nc1N1C[C@@H](C)CC1(C)C [ELX, elexacaftor]	neither macrocycles nor ELX/TEZ affected these levels
2.4	CC(C)(CO)c1cc2cc(NC(=O)C3(c4ccc5c(c4)OC(F)(F)O5)CC3)c(F)cc2n1C[C@@H](O)CO [TEZ, tezacaftor]	neither macrocycles nor ELX/TEZ affected these levels
